Key:
SMN2 mRNA = assay: RT-qPCR splicing assay, SMN2 canonical junction (CJ) mRNA; assay type: cell-based, human; settings: Homo sapiens; Table 5 panel; canonical junction qPCR; compound concentration having 50% response in CJ decrease; read-out: SMN2 IC50 (decrease in CJ mRNA levels)
In short: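 K562/A673 cells, 11-pt 3-fold compound titration from 10 uM final, DMSO ≤0.25%, 24 h 37 °C 5% CO2; lyse (DNase I or Igepal/Tris buffer pH 7.4); RT-qPCR for CJ isoform vs housekeeping gene (GAPDH/GUSB/PPIA).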

HTT = assay: HiBiT protein abundance assay, HTT HiBiT K562 cell line; assay type: cell-based, human; settings: HiBiT K562 cell line, 24 hours, top dose 10 μM; read-out: Effect on protein abundance, HTT (IC50 category)
In short: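 Tagged-protein abundance measured by split-NanoBiT luminescence after lysis, following 24 h compound exposure (37° C; 10 μM top, 3-fold, 10 points; DMSO ≤0.25%) of HiBiT knock-in K562 cells. Percent response vs DMSO and unmodified-cell controls; 4-parameter logistic interpolation at 50% gave IC50.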

| SMILES | IC50 (SMN2 mRNA) | IC50 (HTT) |
| --- | --- | --- |
| CN1CCN(c2ccc3c(=O)n(-c4ccc5nn(C)cc5c4)cnc3c2)CC1 [Compound 152] | > 10000 nM | > 10000 nM |
| Cn1cc2cc(-n3cnc4cc(N5CCNCC5)ccc4c3=O)ccc2n1 [Compound 153] | 1000 to 10000 nM | > 10000 nM |
| Cc1cc(-c2ccc3c(=O)n(C4CC(C)(C)NC(C)(C)C4)cnc3c2)cc2cn(C)nc12 [Compound 157] | 1000 to 10000 nM | 1000 to 10000 nM |
| Cn1cc2cc(-n3cnc4cc(C5=CCNCC5)ccc4c3=O)ccc2n1 [Compound 158] | > 10000 nM | > 10000 nM |
| CN1CC=C(c2ccc3c(=O)n(-c4ccc5nn(C)cc5c4)cnc3c2)CC1 [Compound 159] | > 10000 nM | > 10000 nM |
| CCN1CCC(n2ncc3cc(-c4cc(C)c5nc(C)cn5n4)ccc3c2=O)CC1 [Compound 266] | < 100 nM | < 100 nM |
| Cc1cn2nc(-c3ccc4c(c3)CCN(C3CCNC(C)(C)C3)C4=O)cc(C)c2n1 (centres unmarked) [Compound 267] | < 100 nM | 100 to 1000 nM |
| Cc1cn2nc(-c3ccc4c(c3)CCN(C3CCN(C)CC3)C4=O)cc(C)c2n1 [Compound 268] | < 100 nM | 1000 to 10000 nM |
| Cc1cn2nc(-c3ccc4c(c3)CCN(C3CCNC3)C4=O)cc(C)c2n1 (centres unmarked) [Compound 269] | 1000 to 10000 nM | > 10000 nM |
| CCN1CCC(N2CCc3cc(-c4cc(C)c5nc(C)cn5n4)ccc3C2=O)CC1 [Compound 270] | 100 to 1000 nM | 1000 to 10000 nM |
| Cc1cn2nc(-c3ccc4c(=O)n(C5CCN(C)C5)ncc4c3)cc(C)c2n1 (centres unmarked) [Compound 271] | 100 to 1000 nM | 1000 to 10000 nM |
| Cc1cn2nc(-c3ccc4c(=O)n([C@@H]5CCN[C@H](C)C5)ncc4c3)cc(C)c2n1 [Compound 272] | < 100 nM | < 100 nM |
| Cc1cn2nc(-c3ccc4c(=O)n(C5CCNC6(CC6)C5)ncc4c3)cc(C)c2n1 (centres unmarked) [Compound 274] | < 100 nM | < 100 nM |
| Cc1cn2cc(-c3ccc4c(=O)n(C5CCNCC5)ccc4c3)cc(F)c2n1 [Compound 276] | < 100 nM | < 100 nM |
| Cc1cn2nc(-c3ccc4c(=O)n([C@@H]5CCN(C)[C@H](C)C5)ncc4c3)cc(C)c2n1 [Compound 277] | < 100 nM | 100 to 1000 nM |
| Cc1cn2nc(-c3ccc4c(=O)n([C@H]5CCN(C)[C@H](C)C5)ncc4c3)cc(C)c2n1 [Compound 278] | < 100 nM | < 100 nM |
| Cc1cn2nc(-c3ccc4c(=O)n(C5CCNC(C)(C)C5)ncc4c3)cc(C)c2n1 (centres unmarked) [Compound 279] | < 100 nM | < 100 nM |
| Cc1cn2nc(-c3ccc4c(=O)n([C@@H]5C[C@H]6CC[C@@H](C5)N6)ncc4c3)cc(C)c2n1 [Compound 280] | < 100 nM | 100 to 1000 nM |
| Cc1cn2nc(-c3ccc4c(c3)CCN([C@@H]3CCN[C@H](C)C3)C4=O)cc(C)c2n1 [Compound 281] | 100 to 1000 nM | 1000 to 10000 nM |

| SMILES | IC50 (SMN2 mRNA) | IC50 (HTT) |
| --- | --- | --- |
| Cc1cn2nc(-c3ccc4c(c3)CCN(C3CCN(C)C3)C4=O)cc(C)c2n1 (centres unmarked) [Compound 282] | 1000 to 10000 nM | > 10000 nM |
| Cc1cn2nc(-c3ccc4c(=O)n(C5CCCNCC5)ncc4c3)cc(C)c2n1 (centres unmarked) [Compound 283] | < 100 nM | < 100 nM |
| O=c1c2ccc(-c3cn[nH]c3)cc2ncn1C1CCNCC1 [Compound 284] | 1000 to 10000 nM | > 10000 nM |
| Cc1cn2cc(-c3ccc4c(=O)n(C5CCNCC5)cnc4c3)nc2c(C)n1 [Compound 286] | 100 to 1000 nM | 1000 to 10000 nM |
| Cc1cn2nc(-c3ccc4c(=O)n(C5CCN(C)CC5)cnc4c3)nc2c(C)n1 [Compound 288, 7-{6,8-dimethyl-[1,2,4]triazolo[1,5-a]pyrazin-2-yl}1-3-(1-methylpiperidin-4-yl)quinazolin-4-one] | 1000 to 10000 nM | 1000 to 10000 nM |
| Cc1cn2nc(-c3ccc4c(=O)n(C5CCN(C)CC5)cnc4c3F)cc(C)c2n1 [Compound 290] | 100 to 1000 nM | 100 to 1000 nM |
| Cc1cn2cc(-c3ccc4c(=O)n([C@@H]5CCN[C@@H](C)C5)cnc4c3)cc(F)c2n1 [Compound 293] | < 100 nM | 100 to 1000 nM |
| Cc1cn2cc(-c3ccc4c(=O)n(C5CCN[C@@H](C)C5)cnc4c3)cc(F)c2n1 (some centres unmarked) [Compound 294] | < 100 nM | 100 to 1000 nM |
| Cc1cn2cc(-c3ccc4c(=O)n([C@@H]5CCN[C@H](C)C5)cnc4c3)cc(F)c2n1 [Compound 295] | < 100 nM | 1000 to 10000 nM |
| Cc1cn2cc(-c3ccc4c(=O)n([C@H]5CCN[C@H](C)C5)cnc4c3)cc(F)c2n1 [Compound 296] | < 100 nM | 100 to 1000 nM |
| Cc1cn2cc(-c3ccc4c(=O)n(C5CCNCC5)cnc4c3)ncc2n1 [Compound 297] | < 100 nM | 1000 to 10000 nM |
| CN1CCC(n2cnc3cc(-c4cn[nH]c4)ccc3c2=O)CC1 [Compound 299] | > 10000 nM | > 10000 nM |
| Cc1cn2cc(-c3ccc4c(=O)n(C5CCN(C)CC5)cnc4c3)nc2c(C)n1 [Compound 302] | 100 to 1000 nM | 1000 to 10000 nM |
| Cc1cn2nc(-c3ccc4c(=O)n(C5CCN(C)CC5)cnc4c3)cc2c(C)n1 [Compound 303] | 100 to 1000 nM | 1000 to 10000 nM |
| CC[C@@H]1C[C@H](n2ncc3cc(-c4cc(C)c5nc(C)cn5n4)ccc3c2=O)CCN1 [Compound 304] | < 100 nM | 100 to 1000 nM |
| Cc1cn2cc(-c3ccc4c(=O)n(C5CCN(C)CC5)cnc4c3)ncc2n1 [Compound 308] | 100 to 1000 nM | 1000 to 10000 nM |
| Cc1cn2nc(-c3ccc4c(=O)n(C5CCN(C)CC5)ccc4c3)cc(C)c2n1 [Compound 310] | < 100 nM | 100 to 1000 nM |
| Cc1cn2nc(-c3cc(F)c4c(=O)n(C5CCNC6(CC6)C5)ncc4c3)cc(C)c2n1 (centres unmarked) [Compound 312] | < 100 nM | < 100 nM |

Other lines, results leading:

| IC50 (SMN2 mRNA) | IC50 (HTT) | SMILES |
| --- | --- | --- |
| < 100 nM | 1000 to 10000 nM | Cc1cn2cc(-c3cc(F)c4c(=O)n([C@H]5CCNC[C@@H]5F)cnc4c3)cc(F)c2n1 (relative stereo) [Compound 341, 5-fluoro-7-(8-fluoro-2-methylimidazo[1,2-a]pyridin-6-yl)-3-(trans-3-fluoropiperidin-4-yl)quinazolin-4(3H)-one] |
| < 100 nM | 100 to 1000 nM | Cc1cn2cc(-c3cc(F)c4c(=O)n([C@H]5CCN[C@@H](C)C5)cnc4c3)cc(F)c2n1 (relative stereo) [Compound 343, cis-5-fluoro-7-(8-fluoro-2-methylimidazo[1,2-a]pyridin-6-yl)-3-(2-methylpiperidin-4-yl)quinazolin-4(3H)-one] |
| < 100 nM | < 100 nM | Cc1cn2nc(-c3cc(F)c4c(=O)n([C@H]5CCNC6(CC6)C5)cnc4c3)cc(C)c2n1 (single isomer, unassigned) [Compound 357] |
| 100 to 1000 nM | 1000 to 10000 nM | Cc1cc(-c2ccc3c(=O)n(C4CCN(C)CC4)cnc3c2)cc2cn(C)nc12 [Compound 156] |
| < 100 nM | 1000 to 10000 nM | Cc1nc2c(F)cc(-c3ccc4c(=O)n(C5CCNCC5)cnc4c3)cc2s1 [Compound 285] |
| < 100 nM | 100 to 1000 nM | Cc1cn2nc(-c3ccc4c(=O)n(C5CCNCC5)cnc4c3)nc2c(C)n1 [Compound 287, 7-{6,8-dimethyl-[1,2,4]triazolo[1,5-a]pyrazin-2-yl}-3-(piperidin-4-yl)quinazolin-4-one] |
| < 100 nM | 100 to 1000 nM | Cc1cn2cc(-c3ccc4c(=O)n(C5CCNCC5)cnc4c3)cc(Cl)c2n1 [Compound 291] |
| < 100 nM | 100 to 1000 nM | Cc1cn2cc(-c3ccc4c(=O)n(C5CCNCC5)cnc4c3)cc(C)c2n1 [Compound 292] |
| < 100 nM | 100 to 1000 nM | Cc1cn2nc(-c3ccc4c(=O)n(C5CCNCC5)cnc4c3)cc2c(C)n1 [Compound 298] |
| < 100 nM | 100 to 1000 nM | Cc1nc2c(F)cc(-c3ccc4c(=O)n(C5CCN(C)CC5)cnc4c3)cc2o1 [Compound 300] |
| 1000 to 10000 nM | 1000 to 10000 nM | Cc1nc2c(F)cc(-c3ccc4c(=O)n(C5CCN(C)CC5)cnc4c3)cc2s1 [Compound 301] |
| < 100 nM | 100 to 1000 nM | Cc1cn2cc(-c3ccc4c(=O)n(C5CCNCC5)cnc4c3)cc(C(F)(F)F)c2n1 [Compound 306] |
| 100 to 1000 nM | 1000 to 10000 nM | Cc1cc(-c2cnc3c(=O)n(C4CCNCC4)cnc3c2)cc2cn(C)nc12 [Compound 311] |
| 100 to 1000 nM | 1000 to 10000 nM | Cn1cc2cc(-c3cc(F)c4c(=O)n(C5CCNCC5)cnc4c3)cc(F)c2n1 [Compound 314] |
| < 100 nM | 1000 to 10000 nM | Cn1cc2cc(-c3cc(F)c4c(=O)n(C5CCNCC5)cnc4c3)c(F)cc2n1 [Compound 315] |
| < 100 nM | 100 to 1000 nM | Cn1cc2cc(-c3cc(F)c4c(=O)n(C5CCNCC5)cnc4c3)cc(C#N)c2n1 [Compound 316] |
| < 100 nM | 100 to 1000 nM | Cc1cn2cc(-c3cc(F)c4c(=O)n(C5CCNCC5)cnc4c3)cc(C)c2n1 [Compound 317] |
| < 100 nM | < 100 nM | Cc1cn2nc(-c3cc(F)c4c(=O)n(C5CCNCC5)cnc4c3)cc2c(C)n1 [Compound 318] |
| < 100 nM | 1000 to 10000 nM | Cc1cn2cc(-c3cc(F)c4c(=O)n(C5CCNCC5)cnc4c3)nc2c(C)n1 [Compound 319] |
| 1000 to 10000 nM | > 10000 nM | COc1cc(-c2cc(F)c3c(=O)n(C4CCNCC4)cnc3c2)cnn1 [Compound 320] |
| < 100 nM | < 100 nM | Cc1cn2nc(-c3cc(F)c4c(=O)n(C5CCNCC5)ccc4c3)cc(C)c2n1 [Compound 322] |
